Data: patent US12590134B2, “GLP-1 agonist polypeptide compound and salt thereof, synthesis method therefor and use thereof” (Sinopep-Allsino Biopharmaceutical Co., Ltd., priority 2020, dated 2026)
Like-named read-outs stand apart in the source and are kept apart here. Numbered stars: 1 amine (or outer) side, 2 acyl side, 3 side chain; on linkers, the order of the positions; unused ones are H or OH. Square brackets hold non-standard residues; d marks the D form. Side chains are listed from the residue outwards. Peptide text beside a SMILES is read from it. * marks the point of attachment. C18 diacid = O=C(O)CCCCCCCCCCCCCCCCC(=O)*; γGlu = O=C(O)[C@H](CCC(=O)[*:2])N[*:1]; dNle = CCCC[C@@H](N)C(=O)O; dNva = CCC[C@@H](N)C(=O)O; dAbu = CC[C@@H](N)C(=O)O; AEEA = NCCOCCOCC(=O)O

Biological target: human GLP-1R (Homo sapiens, UniProt P43220)
Assay: cAMP signal analysis of GLP-1R (GLP-1 receptor agonist activity)
Type: cell-based
Protocol: A wild human GLP-1R (NM_002062.5) was subjected to transient transfection and screened for two weeks by 600 μg/ml of hygromycin-B to obtain a cell line which was recombined and integrated into an FlpInCHO (Invitrogen) cell stable expression system. The culture condition of the FlpInCHO cell was as follows: 10% of heat-inactivated fetal calf serum was added to a DMEM culture solution, and the culture was performed in a 5% carbon dioxide cell incubator.
In the test, an LANCE cAMP detection kit was used for measuring the cAMP signal intensity.

[1] = CHO cell line stably expressing human GLP-1R, downstream cAMP signal, LANCE cAMP kit, read-out: GLP-1R EC50

Chain of human GLP-1R (P43220 24-463): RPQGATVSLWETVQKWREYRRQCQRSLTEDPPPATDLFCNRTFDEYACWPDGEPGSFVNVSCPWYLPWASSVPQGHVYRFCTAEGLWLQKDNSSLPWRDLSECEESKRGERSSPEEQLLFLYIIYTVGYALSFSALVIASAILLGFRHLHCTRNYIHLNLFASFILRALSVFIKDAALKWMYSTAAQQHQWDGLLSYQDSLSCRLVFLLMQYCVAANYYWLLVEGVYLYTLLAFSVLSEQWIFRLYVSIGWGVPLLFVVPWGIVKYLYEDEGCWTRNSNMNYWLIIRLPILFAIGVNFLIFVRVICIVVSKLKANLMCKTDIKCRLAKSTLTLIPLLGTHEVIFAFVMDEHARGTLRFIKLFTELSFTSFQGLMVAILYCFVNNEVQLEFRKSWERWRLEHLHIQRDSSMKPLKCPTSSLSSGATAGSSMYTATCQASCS

Row | EC50 [1] [nM] | SMILES | EC50 [nM]
1 | 0.675 ± 0.067 | CC[C@@H](NC(=O)[C@H](CCC(=O)O)NC(=O)[C@H](CC(C)C)NC(=O)[C@H](Cc1ccc(O)cc1)NC(=O)[C@H](CO)NC(=O)[C@H](CO)NC(=O)[C@@H](NC(=O)[C@H](CC(=O)O)NC(=O)[C@H](CO)NC(=O)[C@@H](NC(=O)[C@H](Cc1ccccc1)NC(=O)[C@@H](NC(=O)CNC(=O)[C@H](CCC(=O)O)NC(=O)[C@@H](CC)NC(=O)[C@@H](N)Cc1c[nH]cn1)[C@@H](C)O)[C@@H](C)O)C(C)C)C(=O)N[C@@H](CCC(N)=O)C(=O)N[C@@H](C)C(=O)N[C@@H](C)C(=O)N[C@@H](CCCCNC(=O)COCCOCCNC(=O)COCCOCCNC(=O)CC[C@H](NC(=O)CCCCCCCCCCCCCCCCC(=O)O)C(=O)O)C(=O)N[C@@H](CCC(=O)O)C(=O)N[C@@H](Cc1ccccc1)C(=O)N[C@H](C(=O)N[C@@H](C)C(=O)N[C@@H](Cc1c[nH]c2ccccc12)C(=O)N[C@@H](CC(C)C)C(=O)N[C@H](C(=O)N[C@@H](CCCNC(=N)N)C(=O)NCC(=O)N[C@@H](CCCNC(=N)N)C(=O)NCC(=O)O)C(C)C)[C@@H](C)CC [NO: 9] (H-H[dAbu]EGTFTSDVSSYLE[dAbu]QAAK([AEEA-AEEA-γGlu-C18 diacid])EFIAWLVRGRG-OH) | –
2 | 8.1 ± 0.507 | CCSC[C@@H](NC(=O)[C@H](CCC(=O)O)NC(=O)[C@H](CC(C)C)NC(=O)[C@H](Cc1ccc(O)cc1)NC(=O)[C@H](CO)NC(=O)[C@H](CO)NC(=O)[C@@H](NC(=O)[C@H](CC(=O)O)NC(=O)[C@H](CO)NC(=O)[C@@H](NC(=O)[C@H](Cc1ccccc1)NC(=O)[C@@H](NC(=O)CNC(=O)[C@H](CCC(=O)O)NC(=O)[C@@H](CSCC)NC(=O)[C@@H](N)Cc1c[nH]cn1)[C@@H](C)O)[C@@H](C)O)C(C)C)C(=O)N[C@@H](CCC(N)=O)C(=O)N[C@@H](C)C(=O)N[C@@H](C)C(=O)N[C@@H](CCCCNC(=O)COCCOCCNC(=O)COCCOCCNC(=O)CC[C@H](NC(=O)CCCCCCCCCCCCCCCCC(=O)O)C(=O)O)C(=O)N[C@@H](CCC(=O)O)C(=O)N[C@@H](Cc1ccccc1)C(=O)N[C@H](C(=O)N[C@@H](C)C(=O)N[C@@H](Cc1c[nH]c2ccccc12)C(=O)N[C@@H](CC(C)C)C(=O)N[C@H](C(=O)N[C@@H](CCCNC(=N)N)C(=O)NCC(=O)N[C@@H](CCCNC(=N)N)C(=O)NCC(=O)O)C(C)C)[C@@H](C)CC [NO: 11] (H-H[dC](Et)EGTFTSDVSSYLE[dC](Et)QAAK([AEEA-AEEA-γGlu-C18 diacid])EFIAWLVRGRG-OH) | –
3 | 5.59 ± 0.575 | CCCC[C@@H](NC(=O)[C@H](CCC(=O)O)NC(=O)[C@H](CC(C)C)NC(=O)[C@H](Cc1ccc(O)cc1)NC(=O)[C@H](CO)NC(=O)[C@H](CO)NC(=O)[C@@H](NC(=O)[C@H](CC(=O)O)NC(=O)[C@H](CO)NC(=O)[C@@H](NC(=O)[C@H](Cc1ccccc1)NC(=O)[C@@H](NC(=O)CNC(=O)[C@H](CCC(=O)O)NC(=O)[C@@H](CCCC)NC(=O)[C@@H](N)Cc1c[nH]cn1)[C@@H](C)O)[C@@H](C)O)C(C)C)C(=O)N[C@@H](CCC(N)=O)C(=O)N[C@@H](C)C(=O)N[C@@H](C)C(=O)N[C@@H](CCCCNC(=O)COCCOCCNC(=O)COCCOCCNC(=O)CC[C@H](NC(=O)CCCCCCCCCCCCCCCCC(=O)O)C(=O)O)C(=O)N[C@@H](CCC(=O)O)C(=O)N[C@@H](Cc1ccccc1)C(=O)N[C@H](C(=O)N[C@@H](C)C(=O)N[C@@H](Cc1c[nH]c2ccccc12)C(=O)N[C@@H](CC(C)C)C(=O)N[C@H](C(=O)N[C@@H](CCCNC(=N)N)C(=O)NCC(=O)N[C@@H](CCCNC(=N)N)C(=O)NCC(=O)O)C(C)C)[C@@H](C)CC [NO: 13] (H-H[dNle]EGTFTSDVSSYLE[dNle]QAAK([AEEA-AEEA-γGlu-C18 diacid])EFIAWLVRGRG-OH) | –
4 | 2.9 ± 0.39 | CCC[C@@H](NC(=O)[C@H](CCC(=O)O)NC(=O)[C@H](CC(C)C)NC(=O)[C@H](Cc1ccc(O)cc1)NC(=O)[C@H](CO)NC(=O)[C@H](CO)NC(=O)[C@@H](NC(=O)[C@H](CC(=O)O)NC(=O)[C@H](CO)NC(=O)[C@@H](NC(=O)[C@H](Cc1ccccc1)NC(=O)[C@@H](NC(=O)CNC(=O)[C@H](CCC(=O)O)NC(=O)[C@@H](CCC)NC(=O)[C@@H](N)Cc1c[nH]cn1)[C@@H](C)O)[C@@H](C)O)C(C)C)C(=O)N[C@@H](CCC(N)=O)C(=O)N[C@@H](C)C(=O)N[C@@H](C)C(=O)N[C@@H](CCCCNC(=O)COCCOCCNC(=O)COCCOCCNC(=O)CC[C@H](NC(=O)CCCCCCCCCCCCCCCCC(=O)O)C(=O)O)C(=O)N[C@@H](CCC(=O)O)C(=O)N[C@@H](Cc1ccccc1)C(=O)N[C@H](C(=O)N[C@@H](C)C(=O)N[C@@H](Cc1c[nH]c2ccccc12)C(=O)N[C@@H](CC(C)C)C(=O)N[C@H](C(=O)N[C@@H](CCCNC(=N)N)C(=O)NCC(=O)N[C@@H](CCCNC(=N)N)C(=O)NCC(=O)O)C(C)C)[C@@H](C)CC [NO: 15] (H-H[dNva]EGTFTSDVSSYLE[dNva]QAAK([AEEA-AEEA-γGlu-C18 diacid])EFIAWLVRGRG-OH) | –
5 | – | CC[C@H](C)[C@H](NC(=O)[C@H](Cc1ccccc1)NC(=O)[C@H](CCC(=O)O)NC(=O)[C@H](CCCCNC(=O)COCCOCCNC(=O)COCCOCCNC(=O)CC[C@H](NC(=O)CCCCCCCCCCCCCCCCC(=O)O)C(=O)O)NC(=O)[C@H](C)NC(=O)[C@H](C)NC(=O)[C@H](CCC(N)=O)NC(=O)[C@@H]1CCCN1C(=O)[C@H](CCC(=O)O)NC(=O)[C@H](CC(C)C)NC(=O)[C@H](Cc1ccc(O)cc1)NC(=O)[C@H](CO)NC(=O)[C@H](CO)NC(=O)[C@@H](NC(=O)[C@H](CC(=O)O)NC(=O)[C@H](CO)NC(=O)[C@@H](NC(=O)[C@H](Cc1ccccc1)NC(=O)[C@@H](NC(=O)CNC(=O)[C@H](CCC(=O)O)NC(=O)[C@@H]1CCCN1C(=O)[C@@H](N)Cc1c[nH]cn1)[C@@H](C)O)[C@@H](C)O)C(C)C)C(=O)N[C@@H](C)C(=O)N[C@@H](Cc1c[nH]c2ccccc12)C(=O)N[C@@H](CC(C)C)C(=O)N[C@H](C(=O)N[C@@H](CCCNC(=N)N)C(=O)NCC(=O)N[C@@H](CCCNC(=N)N)C(=O)NCC(=O)O)C(C)C [NO: 17] | 3.32 ± 0.677
6 | – | CC[C@H](C)[C@H](NC(=O)[C@H](Cc1ccccc1)NC(=O)[C@H](CCC(=O)O)NC(=O)[C@H](CCCCNC(=O)COCCOCCNC(=O)COCCOCCNC(=O)CC[C@H](NC(=O)CCCCCCCCCCCCCCCCC(=O)O)C(=O)O)NC(=O)[C@H](C)NC(=O)[C@H](C)NC(=O)[C@H](CCC(N)=O)NC(=O)CNC(=O)[C@H](CCC(=O)O)NC(=O)[C@H](CC(C)C)NC(=O)[C@H](Cc1ccc(O)cc1)NC(=O)[C@H](CO)NC(=O)[C@H](CO)NC(=O)[C@@H](NC(=O)[C@H](CC(=O)O)NC(=O)[C@H](CO)NC(=O)[C@@H](NC(=O)[C@H](Cc1ccccc1)NC(=O)[C@@H](NC(=O)CNC(=O)[C@H](CCC(=O)O)NC(=O)[C@@H]1CCCN1C(=O)[C@@H](N)Cc1c[nH]cn1)[C@@H](C)O)[C@@H](C)O)C(C)C)C(=O)N[C@@H](C)C(=O)N[C@@H](Cc1c[nH]c2ccccc12)C(=O)N[C@@H](CC(C)C)C(=O)N[C@H](C(=O)N[C@@H](CCCNC(=N)N)C(=O)NCC(=O)N[C@@H](CCCNC(=N)N)C(=O)NCC(=O)O)C(C)C [NO: 18] | 3.12 ± 0.512
7 | – | CC[C@H](C)[C@H](NC(=O)[C@H](Cc1ccccc1)NC(=O)[C@H](CCC(=O)O)NC(=O)[C@H](CCCCNC(=O)COCCOCCNC(=O)COCCOCCNC(=O)CC[C@H](NC(=O)CCCCCCCCCCCCCCCCC(=O)O)C(=O)O)NC(=O)[C@H](C)NC(=O)[C@H](C)NC(=O)[C@H](CCC(N)=O)NC(=O)[C@@](C)(CC(F)(F)F)NC(=O)[C@H](CCC(=O)O)NC(=O)[C@H](CC(C)C)NC(=O)[C@H](Cc1ccc(O)cc1)NC(=O)[C@H](CO)NC(=O)[C@H](CO)NC(=O)[C@@H](NC(=O)[C@H](CC(=O)O)NC(=O)[C@H](CO)NC(=O)[C@@H](NC(=O)[C@H](Cc1ccccc1)NC(=O)[C@@H](NC(=O)CNC(=O)[C@H](CCC(=O)O)NC(=O)[C@@](C)(CC(F)(F)F)NC(=O)[C@@H](N)Cc1c[nH]cn1)[C@@H](C)O)[C@@H](C)O)C(C)C)C(=O)N[C@@H](C)C(=O)N[C@@H](Cc1c[nH]c2ccccc12)C(=O)N[C@@H](CC(C)C)C(=O)N[C@H](C(=O)N[C@@H](CCCNC(=N)N)C(=O)NCC(=O)N[C@@H](CCCNC(=N)N)C(=O)NCC(=O)O)C(C)C [NO: 19] | 0.791 ± 0.0635
8 | – | CC[C@H](C)[C@H](NC(=O)[C@H](Cc1ccccc1)NC(=O)[C@H](CCC(=O)O)NC(=O)[C@H](CCCCNC(=O)COCCOCCNC(=O)COCCOCCNC(=O)CC[C@H](NC(=O)CCCCCCCCCCCCCCCCC(=O)O)C(=O)O)NC(=O)[C@H](C)NC(=O)[C@H](C)NC(=O)[C@H](CCC(N)=O)NC(=O)CNC(=O)[C@H](CCC(=O)O)NC(=O)[C@H](CC(C)C)NC(=O)[C@H](Cc1ccc(O)cc1)NC(=O)[C@H](CO)NC(=O)[C@H](CO)NC(=O)[C@@H](NC(=O)[C@H](CC(=O)O)NC(=O)[C@H](CO)NC(=O)[C@@H](NC(=O)[C@H](Cc1ccccc1)NC(=O)[C@@H](NC(=O)CNC(=O)[C@H](CCC(=O)O)NC(=O)[C@@](C)(CC(F)(F)F)NC(=O)[C@@H](N)Cc1c[nH]cn1)[C@@H](C)O)[C@@H](C)O)C(C)C)C(=O)N[C@@H](C)C(=O)N[C@@H](Cc1c[nH]c2ccccc12)C(=O)N[C@@H](CC(C)C)C(=O)N[C@H](C(=O)N[C@@H](CCCNC(=N)N)C(=O)NCC(=O)N[C@@H](CCCNC(=N)N)C(=O)NCC(=O)O)C(C)C [NO: 20] | 0.693 ± 0.0557
9 | – | CC[C@H](C)[C@H](NC(=O)[C@H](Cc1ccccc1)NC(=O)[C@H](CCC(=O)O)NC(=O)[C@H](CCCCNC(=O)COCCOCCNC(=O)COCCOCCNC(=O)CC[C@H](NC(=O)CCCCCCCCCCCCCCCCC(=O)O)C(=O)O)NC(=O)[C@H](C)NC(=O)[C@H](C)NC(=O)[C@H](CCC(N)=O)NC(=O)[C@](C)(NC(=O)[C@H](CCC(=O)O)NC(=O)[C@H](CC(C)C)NC(=O)[C@H](Cc1ccc(O)cc1)NC(=O)[C@H](CO)NC(=O)[C@H](CO)NC(=O)[C@@H](NC(=O)[C@H](CC(=O)O)NC(=O)[C@H](CO)NC(=O)[C@@H](NC(=O)[C@H](Cc1ccccc1)NC(=O)[C@@H](NC(=O)CNC(=O)[C@H](CCC(=O)O)NC(=O)[C@](C)(NC(=O)[C@@H](N)Cc1c[nH]cn1)C(F)(F)C(F)(F)F)[C@@H](C)O)[C@@H](C)O)C(C)C)C(F)(F)C(F)(F)F)C(=O)N[C@@H](C)C(=O)N[C@@H](Cc1c[nH]c2ccccc12)C(=O)N[C@@H](CC(C)C)C(=O)N[C@H](C(=O)N[C@@H](CCCNC(=N)N)C(=O)NCC(=O)N[C@@H](CCCNC(=N)N)C(=O)NCC(=O)O)C(C)C [NO: 21] | 0.652 ± 0.0417
